This is an account of results in US11071730B2, “Substituted 6-azabenzimidazole compounds” (Gilead Sciences, Inc., priority 2018, dated 2021).

SMILES strings stand for the structures.

Chain of human HPK1 (MAP4K1) (Q92918 17-274): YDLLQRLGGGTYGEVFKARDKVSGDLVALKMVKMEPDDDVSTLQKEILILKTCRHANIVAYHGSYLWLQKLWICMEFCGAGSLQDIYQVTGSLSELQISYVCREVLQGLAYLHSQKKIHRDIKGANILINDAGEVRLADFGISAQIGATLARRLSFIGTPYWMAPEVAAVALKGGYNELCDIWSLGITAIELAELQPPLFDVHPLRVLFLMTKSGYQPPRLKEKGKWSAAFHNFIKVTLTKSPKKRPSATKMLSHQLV

This assay addresses human HPK1 (MAP4K1) (Homo sapiens (Human), UniProt Q92918). The assay is described as follows: HPK1 IC50 Assay (TR-FRET biochemical kinase assay, STK S1 peptide substrate). To be noted: recombinant human HPK1 kinase domain 0.15 nM, 10 μM ATP, 1 μM STK S1 peptide; geometric mean of multiple experiments. The protocol:
The enzymatic activity of human HPK1 (MAP4K1) was monitored in a biochemical assay in the presence or absence of compounds and using a synthetic peptide substrate. An increase in phosphorylation of the peptide by HPK1 was indicative of its kinase activity.
Recombinant HPK1 kinase domain produced via baculovirus infection of insect cells was obtained from Proteros (Proteros Biostructures #PR-0322) and was pre-activated in the presence of 2 mM ATP (Sigma-Aldrich, cat #GE27-2056-01) and 2 mM magnesium chloride for 16 hours at 4° C. The protein reaction mixture was then loaded to a desalting column (Thermo Fisher Scientific, Cat #89889) to remove excess ATP. HPK1 was eluted with buffer containing 20 mM Tris (2-Amino-2-(hydroxymethyl)propane-1,3-diol) pH 8.0, 150 mM NaCl, 2 mM dithiothreitol and 5% glycerol, and was frozen at −80° C. for later use.
Ten nanoliters of test compounds dissolved in DMSO at various concentrations were dispensed into a 384-well ProxiPlate (PerkinElmer #6008289). Five microliters of a solution of recombinant HPK1 diluted in HPK1 kinase assay buffer (50 mM BES [N,N-Bis(2-hydroxyethyl)-2-aminoethanesulfonic acid], pH 7.0; 10 mM magnesium chloride; 0.01% Triton X-100; 1 mM dithiothreitol; 0.01% bovine serum albumin; 0.1 mM sodium orthovanadate) was added to the compound-containing plate and was incubated for 15 minutes at 25° C. Five microliters of a mixture of ATP (Sigma-Aldrich #A6559) and peptide substrate STK S1 (Cisbio #61ST1BLC) diluted in HPK1 kinase assay buffer was then added to start the reaction. Final concentrations were 0.15 nM for HPK1, 10 μM for ATP, and 1 μM for the STK S1 peptide substrate. The reaction mixture was incubated at 25° C. for 3 hours and was stopped with the addition of 10 μl of an EDTA (Ethylenediaminetetraacetic acid)-containing detection buffer (Cisbio #62SDBRDF) supplemented with Europium cryptate-labeled anti-phospho-serine/threonine antibodies (Cisbio #62ST1PEJ) and XL665-labeled streptavidin (Cisbio #610SAXLG). The mixture was incubated for 16 hours at room temperature and peptide phosphorylation was measured by time-resolved fluorescence energy transfer (665 nm/620 nm) on an Envision plate reader (PerkinElmer).
Data in Table 1 were normalized based on positive (staurosporine) and negative (DMSO) controls. Least squares curve fittings were performed using a four-parameter variable slope nonlinear regression model. IC50 is defined as the concentration of compound required to inhibit 50% of maximum phosphorylation. IC50 values from multiple experiments were averaged by geometric mean and the standard deviation was calculated.
(TR-FRET usually uses a lanthanide donor and a delayed reading to cut background.)
One may read the IC50 as the concentration needed to halve the response being measured. Turning to `CC(C)n1cnc2cc(-c3ccc4c(c3)N([C@H]3C[C@@H](N5CCC(C)(C)C5)C3)C(=O)C43CCN(C(=O)[C@@H]4CC[C@H](C)O4)CC3)nc(Nc3ccncc3F)c21` [Example 20B, 1-((1s,3R)-3-(3,3-dimethylpyrrolidin-1-yl)cyclobutyl)-6-(4-((3-fluoropyridin-4-yl)amino)-3-isopropyl-3H-imidazo[4,5-c]pyridin-6-yl)-1′-((2S,5 S)-5-methyltetrahydrofuran-2-carbonyl)spiro[indoline-3,4′-piperidin]-2-one], the IC50 is 50 pM.
Next, `CC(C)n1cnc2cc(-c3ccc4c(c3)N([C@H]3C[C@@H](N5CCC(C)(C)C5)C3)C(=O)C43CCN(C(=O)CC4COC4)CC3)nc(Nc3ccncc3F)c21` [Example 21]: 400 pM; `CC(C)n1cnc2cc(-c3ccc4c(c3)N([C@H]3C[C@@H](N5CCCCC5)C3)C(=O)C43CCN(C(=O)C4CCO4)CC3)nc(Nc3ccncc3F)c21` (some centres unmarked) [Example 22]: 300 pM; `CC(C)n1cnc2cc(-c3ccc4c(c3)N([C@H]3C[C@@H](N5CCC(C)(C)C5)C3)C(=O)C43CCN(C(=O)C4CCOCC4)CC3)nc(Nc3ccncc3F)c21` [Example 23]: 200 pM.
With `CC(C)n1cnc2cc(-c3ccc4c(c3)N([C@H]3C[C@@H](N5CCC(C)(C)C5)C3)C(=O)C43CCN(C(=O)C4CCCCO4)CC3)nc(Nc3ccncc3F)c21` (some centres unmarked) [Example 24], the IC50 stood at 90 pM.
Regarding `CC(C)n1cnc2cc(-c3ccc4c(c3)N([C@H]3C[C@@H](N5CCC(C)(C)C5)C3)C(=O)C43CCN(C(=O)C4CCCOC4)CC3)nc(Nc3ccncc3F)c21` (some centres unmarked) [Example 25], the IC50 was 200 pM.
Next, `CC(C)n1cnc2cc(-c3ccc4c(c3)N([C@H]3C[C@@H](N5CCCCC5)C3)C(=O)C43CCN(C(=O)C4(C)CC4)CC3)nc(Nc3ccncc3F)c21` [Example 27]: 500 pM; `CC(C)n1cnc2cc(-c3ccc4c(c3)N([C@H]3C[C@@H](N5CCCCC5)C3)C(=O)C43CCN(C(=O)C45CC(F)(C4)C5)CC3)nc(Nc3ccncc3F)c21` [Example 28]: 100 pM.
Next, `CC(=O)N1CCC2(CC1)C(=O)N([C@H]1C[C@@H](N3CCC(C)(C)C3)C1)c1cc(-c3cc4ncn(C(C)C)c4c(Nc4ccncc4F)n3)ccc12` [Example 29]: 400 pM; `COC(=O)N1CCC2(CC1)C(=O)N([C@H]1C[C@@H](N3CCCCC3)C1)c1cc(-c3cc4ncn(C(C)C)c4c(Nc4ccncc4F)n3)ccc12` [Example 30]: 600 pM.
Next, `CC(=O)N1CCC2(CC1)C(=O)N([C@H]1C[C@@H](N3CCCCC3)C1)c1cc(-c3cc4ncn(C(C)C)c4c(Nc4cc(C)ncc4F)n3)ccc12` [Example 31]: 1100 pM; `CC(=O)N1CCC2(CC1)C(=O)N([C@H]1C[C@@H](N3CCC[C@@H](C)C3)C1)c1cc(-c3cc4ncn(C(C)C)c4c(Nc4ccncc4F)n3)ccc12` [Example 32]: 600 pM.
Consider `CC(=O)N1CCC2(CC1)C(=O)N([C@H]1C[C@@H](N3C[C@@H](C)[C@@H](C)C3)C1)c1cc(-c3cc4ncn(C(C)C)c4c(Nc4ccncc4F)n3)ccc12` [Example 33], for which the IC50 turned out to be 300 pM.
For `CC(=O)N1CCC2(CC1)C(=O)N([C@H]1C[C@@H](N3CC4CCC(C3)O4)C1)c1cc(-c3cc4ncn(C(C)C)c4c(Nc4ccncc4F)n3)ccc12` [Example 34], the half-maximal inhibitory concentration (IC50) stood at 200 pM.
Under `CC(C)n1cnc2cc(-c3ccc4c(c3)N([C@H]3C[C@@H](N5CCCC6(CC6)C5)C3)C(=O)C43CCN(C(=O)C4(C)COC4)CC3)nc(Nc3ccncc3F)c21` [Example 35] stands 200 pM.
Regarding `CC(C)n1cnc2cc(-c3ccc4c(c3)N([C@H]3C[C@@H](N5CCCC6(CC6)C5)C3)C(=O)C43CCN(C(=O)[C@@H](C)O)CC3)nc(Nc3ccncc3F)c21` [Example 36], the 50% inhibitory concentration (IC50) was determined as 300 pM.
Next, `CC(C)n1cnc2cc(-c3ccc4c(c3)N([C@H]3C[C@@H](N5CC(O)C(C)(C)C5)C3)C(=O)C43CCN(C4COC4)CC3)nc(Nc3ccncc3F)c21` (some centres unmarked) [Example 37, 6-(4-((3-fluoropyridin-4-yl)amino)-3-isopropyl-3H-imidazo[4,5-c]pyridin-6-yl)-1-((1s,3s)-3-(4-hydroxy-3,3-dimethylpyrrolidin-1-yl)cyclobutyl)-1′-(oxetan-3-yl)spiro[indoline-3,4′-piperidin]-2-one]: 200 pM.
Next, `CC(C)n1cnc2cc(-c3ccc4c(c3)N([C@H]3C[C@@H](N5CC(C)(C)C[C@H]5CO)C3)C(=O)C43CCN(C4COC4)CC3)nc(Nc3ccncc3F)c21` [Example 38]: 1400 pM; `CC(C)n1cnc2cc(-c3ccc4c(c3)N([C@H]3C[C@@H](N5CC(C)(C)C[C@@H]5CO)C3)C(=O)C43CCN(C4COC4)CC3)nc(Nc3ccncc3F)c21` [Example 39]: 600 pM; `CC(C)n1cnc2cc(-c3ccc4c(c3)N([C@H]3C[C@@H](N5C[C@@H](O)C(C)(C)C5)C3)C(=O)C43CCN(C4COC4)CC3)nc(Nc3ccncc3F)c21` [Example 40]: 600 pM.
Under `CC(C)n1cnc2cc(-c3ccc4c(c3)N([C@H]3C[C@@H](N5CCC[C@@H](C)C5)C3)C(=O)C43CCN(C4COC4)CC3)nc(Nc3ccncc3F)c21` [Example 41] stands 600 pM.
For the molecule `CC(C)n1cnc2cc(-c3ccc4c(c3)N([C@H]3C[C@@H](N5CC[C@@H](F)C5)C3)C(=O)C43CCN(C4COC4)CC3)nc(Nc3ccncc3F)c21` [Example 42], the IC50 worked out at 600 pM.
Under `CC(C)n1cnc2cc(-c3ccc4c(c3)N([C@H]3C[C@@H](N5CCC(F)CC5)C3)C(=O)C43CCN(C4COC4)CC3)nc(Nc3ccncc3F)c21` [Example 43] stands 1100 pM; under `CC(C)n1cnc2cc(-c3ccc4c(c3)N([C@H]3C[C@@H](N5CC[C@@H](C)C5)C3)C(=O)C43CCN(C4COC4)CC3)nc(Nc3ccncc3F)c21` [Example 44], 1100 pM.
With `CC(C)n1cnc2cc(-c3ccc4c(c3)N([C@H]3C[C@@H](N5CCCC(C)(C)C5)C3)C(=O)C43CCN(C4COC4)CC3)nc(Nc3ccncc3F)c21` [Example 45], the IC50 was 200 pM.
Turning to `CC(C)n1cnc2cc(-c3ccc4c(c3)N([C@H]3C[C@@H](N5CC[C@H](F)C5)C3)C(=O)C43CCN(C4COC4)CC3)nc(Nc3ccncc3F)c21` [Example 46], the IC50 stood at 1100 pM.
Regarding `CC(C)n1cnc2cc(-c3ccc4c(c3)N([C@H]3C[C@@H](N5CC[C@H](C)C5)C3)C(=O)C43CCN(C4COC4)CC3)nc(Nc3ccncc3F)c21` [Example 47], the IC50 turned out to be 1600 pM.
Take `CC(C)n1cnc2cc(-c3ccc4c(c3)N([C@H]3C[C@@H](N5CCC(C(F)F)C5)C3)C(=O)C43CCN(C4COC4)CC3)nc(Nc3ccncc3F)c21` (some centres unmarked) [Example 48]: the IC50 turned out to be 1500 pM.
`CC(C)n1cnc2cc(-c3ccc4c(c3)N([C@H]3C[C@@H](N5CC(F)C6(CC6)C5)C3)C(=O)C43CCN(C4COC4)CC3)nc(Nc3ccncc3F)c21` (some centres unmarked) [Example 49]: the IC50 was 500 pM.
Next, `CC(C)n1cnc2cc(-c3ccc4c(c3)N([C@H]3C[C@@H](N5C6CCC5COC6)C3)C(=O)C43CCN(C4COC4)CC3)nc(Nc3ccncc3F)c21` [Example 50]: 500 pM.
Next, `CC(C)n1cnc2cc(-c3cnc4c(c3)N([C@H]3C[C@@H](N5CCCCC5)C3)C(=O)C4(C)C)nc(Nc3ccncc3F)c21` [Example 51]: 13200 pM; `CC(C)n1cnc2cc(-c3ccc4c(c3)N([C@H]3C[C@@H](NCC(C)(C)O)C3)C(=O)C4(C)C)nc(Nc3ccncc3F)c21` [Example 52, 6-(4-((3-fluoropyridin-4-yl)amino)-3-isopropyl-3H-imidazo[4,5-c]pyridin-6-yl)-1-((1s,3s)-3-((2-hydroxy-2-methylpropyl)amino)cyclobutyl)-3,3-dimethylindolin-2-one]: 1600 pM; `Cc1cc(Nc2nc(-c3ccc4c(c3)N([C@H]3C[C@@H](NCC(C)(C)O)C3)C(=O)C4(C)C)cc3ncn(C(C)C)c23)c(F)cn1` [Example 53]: 2100 pM.
`Cc1cc(Nc2nc(-c3ccc4c(c3)N([C@H]3C[C@@H](N5CCCCC5)C3)C(=O)C4(C)C)cc3ncn(C(C)C)c23)c(F)cn1` [Example 54]: the IC50 was 1500 pM.
Under `CC(C)n1cnc2cc(-c3ccc4c(c3)N([C@H]3C[C@@H](N5CCCCC5)C3)C(=O)C4(C)O)nc(Nc3ccncc3F)c21` (some centres unmarked) [Example 55, 6-(4-((3-fluoropyridin-4-yl)amino)-3-isopropyl-3H-imidazo[4,5-c]pyridin-6-yl)-3-hydroxy-3-methyl-1-((1s,3s)-3-(piperidin-1-yl)cyclobutyl)indolin-2-one] stands 900 pM.
